Reference: patent US20110021621A1, “Drug for treating circulatory insufficiency” (ACTIVUS PHARMA CO., LTD., priority 2005, published 2011)
Read-outs that look alike come from different tables or passages of the source.

Legend:
[1] = Stability test in acidic or basic solution (half-life by liquid chromatography); assay type: physicochemical; conditions: time to 50% residual rate
Procedure: The test compounds were dissolved in an acidic solution (phosphate buffer (pH3.4)) and in a basic solution (phosphate buffer (pH7.3)) at the concentration of 1 mmoL/L. Immediately after they were dissolved, each solution was analyzed with liquid chromatography using an acidic solution (phosphate buffer (pH3.4)) or basic solution (phosphate buffer (pH7.3)) as an eluent. The peak area of the test compounds was measured as the initial value. Furthermore, a time-course analysis with liquid chromatograpy was conducted to measure the peak area at each time point. The solution containing the test compound was kept in an incubator at 37° C. Based on the measured peak area of the test compounds, the percentage (%) of the peak area at each measurement time point was calculated, taking the peak area of the initial value as 100(%). The half-life (the time to show a 50% residual rate of the test compounds) of the test compounds was further calculated, and its stability was evaluated based on the half-life.

[2] = system: circulatory insufficiency model of rats induced by injection of lauric-acid into their femoral artery; test: Circulatory insufficiency model induced by lauric-acid in rats (lesion index); assay type: in vivo, rat; design: key: summed toe lesion grades, +5 if heel reached; max 25 points; conditions: male Wistar rats, average, max 25 points; for Lesion Index after 10 days: 30 mg/kg multiple oral dosing (1 h prior to and 3 h after lauric-acid, then twice daily for 9 days), 10 days after lauric-acid injection; for Lesion Index after 3 days: 30 mg/kg multiple oral dosing (1 h prior to and 3 h after lauric-acid, then twice daily), 3 days after lauric-acid injection
Procedure: We performed this test in order to evaluate the pharmacological effect of the compounds of the present invention using a circulatory insufficiency model of rats induced by injection of lauric-acid into their femoral artery.
13-week-old male Wistar rats (body weight is 280 to 316 g), 8 rats per one group, were used. The rats were held in a supine position under anesthesia due to administration of 40 mg/kg of sodium pentobarbital by intraperitoneal injection. Then, the right femoral area was incised, thereby injecting 0.15 mL of 10 mg/mL lauric-acid solution into the femoral artery in order to induce lower limb gangrene caused by the peripheral vascular disorder. A few drops of instant adhesive (Aron-alpha; registered trademark) were used to stop bleeding, followed by topical application of antibiotics (potassium penicillin G solution) to prevent infection, and the incision site was then sutured.
The suspension was administered, by means of multiple oral dosing, 1 hour prior to and 3 hours after injection of lauric-acid and twice daily (at 10:00 and 17:00) for the following 9 days, at the dose of 30 mg/kg for each compound. […] The suspension was administered orally 3 hours prior to injection of lauric-acid at the dose of 300 mg/kg.
The extent of lesions was evaluated 3 days and 10 days after injection of lauric acid by the following criteria:
The lesion of each toe was graded and the total points of 5 toes were use as a lesion index, wherein 5 points were further added when the lesion reached the heel (i.e. the maximum lesion index was 25 points).
The shown number refers to the average value of the lesion index obtained from the evaluation.

Structure (SMILES)	half-life at 1 mmoL/L ([1]; phosphate buffer pH 3.4, 37° C., read-out: Half-life, pH 3.4 solution (converted))	half-life at 1 mmoL/L ([1]; phosphate buffer pH 7.3, 37° C., read-out: Half-life, pH 7.3 solution (converted))	Lesion Index after 10 days [2]	Lesion Index after 3 days [2]
O=c1oc2ccc(-c3ccccc3)cc2c(O)c1O [C, reference compound]	35 h	65 h		
CCCCCCOc1c(O)c2c(O)cccc2oc1=O [Compound 9]			7.8	2.5
CCCCCCOc1c(O)c2cc(O)ccc2oc1=O [Compound 67]			7.5	2.8
CCCCCCOc1c(O)c2cc(OCCCC)ccc2oc1=O [Compound 98]			8.4	3.0
CCOc1c(O)c2ccc(O)cc2oc1=O [Compound 118]			8.3	2.4
CCCOc1c(O)c2ccc(O)cc2oc1=O [Compound 119]			7.1	2.5
CC(C)Oc1c(O)c2ccc(O)cc2oc1=O [Compound 120]			8.0	2.3
CCCCOc1c(O)c2ccc(O)cc2oc1=O [Compound 121]			7.3	2.8
CCCCCOc1c(O)c2ccc(O)cc2oc1=O [Compound 123]			7.9	2.6
CCC(CC)Oc1c(O)c2ccc(O)cc2oc1=O [Compound 124]			8.3	3.0
CCCCCCCCOc1c(O)c2ccc(O)cc2oc1=O [Compound 131]			7.5	3.0
CC(C)=CCCC(C)=CCOc1c(O)c2ccc(O)cc2oc1=O [Compound 141]			7.8	2.6
CC(C)=CCCC(C)=CCOc1ccc2c(O)c(OCC=C(C)CCC=C(C)C)c(=O)oc2c1 [Compound 174]			7.5	2.7
CCCCOc1c(O)c2cccc(O)c2oc1=O [Compound 179]			8.4	3.6
CCCCCCC=COc1c(O)c2cccc(O)c2oc1=O [Compound 196]			7.4	3.3
CCCCCCOc1c(O)c2cccc(OCCCC)c2oc1=O [Compound 214]			7.9	3.5
CCCCOc1c(O)c2c(OCCO)cccc2oc1=O [Compound 237]			7.9	3.4

Structure (SMILES)	half-life at 1 mmoL/L ([1]; phosphate buffer pH 3.4, 37° C., read-out: Half-life, pH 3.4 solution (converted))	half-life at 1 mmoL/L ([1]; phosphate buffer pH 7.3, 37° C., read-out: Half-life, pH 7.3 solution (converted))	Lesion Index after 10 days [2]	Lesion Index after 3 days [2]
CCCCC(CC)Oc1c(O)c2c(OCCO)cccc2oc1=O (centres unmarked) [Compound 244]			7.4	3.5
CCCCOc1c(O)c2c(OCCCO)cccc2oc1=O [Compound 261]			7.6	3.7
CCCCCCCCOc1c(O)c2c(OCC(O)CO)cccc2oc1=O (centres unmarked) [Compound 280]			7.9	2.7
CCCCOc1c(O)c2c(OCC(=O)O)cccc2oc1=O [Compound 295]			7.2	3.0
CCCCCCCCOc1c(O)c2c(OCCCCC(=O)O)cccc2oc1=O [Compound 333]			7.4	3.0
CC(C)CCCOc1c(O)c2cc(OCCO)ccc2oc1=O [Compound 347]			8.1	2.3
CCCCCCOc1c(O)c2cc(OCCC(O)CO)ccc2oc1=O (centres unmarked) [Compound 388]			7.5	2.9
CCCCCCCCOc1c(O)c2cc(OCCCC(=O)O)ccc2oc1=O [Compound 429]			7.9	2.2
CC(C)CCCOc1c(O)c2ccc(OCCO)cc2oc1=O [Compound 449]			7.3	2.8
CCCCCCCCOc1c(O)c2ccc(OCCCO)cc2oc1=O [Compound 468]			7.8	2.8
CCCCC(CC)Oc1c(O)c2ccc(OCCCCO)cc2oc1=O (centres unmarked) [Compound 477]			7.7	2.9
CCCCCCCCCCOc1c(O)c2ccc(OCC(O)CO)cc2oc1=O (centres unmarked) [Compound 485]			7.9	2.8
CCCCCCCCOc1c(O)c2ccc(OCCC(O)CO)cc2oc1=O (centres unmarked) [Compound 491]			7.4	2.9
CCCCC(CC)Oc1c(O)c2ccc(OCC(=O)O)cc2oc1=O (centres unmarked) [Compound 506]			7.3	2.7
CCCCCCOc1c(O)c2cccc(OCCO)c2oc1=O [Compound 547]			7.2	3.0
CC(C)CCCOc1c(O)c2cccc(OCCO)c2oc1=O [Compound 551]			7.8	2.5
CCCCCCCCOc1c(O)c2cccc(OCCCC(=O)O)c2oc1=O [Compound 633]			7.4	2.6
